In brackets after ≈: the same amount, converted by molar mass.
Columns and labels:
[1] = tested on: M. suipneumoniae TAM 6N; assay: MIC against mycoplasma in vitro; format: cell-based; settings: Mesomycoplasma hyopneumoniae, TAM6N, 144 h; M. suipneumoniae TAM 6N; 6 days, 37° C.; read-out: MIC
[2] = tested on: E. coli E1; assay: MIC against veterinary bacteria in vitro; settings: Escherichia coli, E1, 18 h
Description: (§1) The activity of the compounds of the Examples against various veterinarily important bacteria, was assayed in vitro using two-fold serial dilutions in Diagnostic Sensitivity Test Agar inoculated with 10^4 organisms.

[3] = tested on: Strep. suis (group D) SPS11; assay: MIC against veterinary bacteria in vitro; settings: Streptococcus suis, 18 h
Description: as §1

[4] = tested on: M. hyosynoviae ATCC 25591; assay: MIC against mycoplasma in vitro; format: cell-based; settings: 144 h
[5] = tested on: M. hyorhinis ATCC 25021; assay: MIC against mycoplasma in vitro; format: cell-based; settings: Mesomycoplasma hyorhinis, ATCC25021, 144 h; M. hyorhinis ATCC 25021; 6 days, 37° C.; read-out: MIC
[6] = tested on: E. coli NCTC 10418; assay: MIC against veterinary bacteria in vitro; settings: Escherichia coli, NCTC10418, 18 h
Description: as §1

[7] = tested on: Bord. bronchiseptica B08; assay: MIC against veterinary bacteria in vitro; settings: Bordetella bronchiseptica, B08, 18 h
Description: as §1

[8] = tested on: M. suipneumoniae UCD 1; assay: MIC against mycoplasma in vitro; format: cell-based; settings: Mesomycoplasma hyopneumoniae, UCD1, 144 h
[9] = tested on: S. typhimurium S18; assay: MIC against veterinary bacteria in vitro; settings: Salmonella enterica, TYPHIMURIUM, 18 h
Description: as §1

[10] = tested on: Staph. aureus B4 (pen. resistant); assay: MIC against veterinary bacteria in vitro; settings: Staphylococcus aureus, 18 h
Description: as §1

[11] = tested on: Strep. dysgalactiae SPD1; assay: MIC against veterinary bacteria in vitro; settings: Streptococcus dysgalactiae, SPD1, 18 h
Description: as §1

[12] = tested on: M. suipneumoniae LABER; assay: MIC against mycoplasma in vitro; format: cell-based; settings: Mesomycoplasma hyopneumoniae, 144 h
[13] = tested on: Staph. aureus Oxford; assay: MIC against veterinary bacteria in vitro; settings: Staphylococcus aureus, 18 h
Description: as §1

[14] = tested on: M. pneumoniae ATCC 15492; assay: MIC against mycoplasma in vitro; format: cell-based; settings: Mycoplasmoides pneumoniae, ATCC15492, 144 h; M. pneumoniae ATCC 15492; 6 days, 37° C.; read-out: MIC
[15] = tested on: Past. multocida PA2; assay: MIC against veterinary bacteria in vitro; settings: Pasteurella multocida, PA2, 18 h
Description: as §1

[16] = tested on: M. suipneumoniae HK(2); assay: MIC against mycoplasma in vitro; format: cell-based; settings: Mesomycoplasma hyopneumoniae, 144 h; M. suipneumoniae HK(2); 6 days, 37° C.; read-out: MIC
[17] = tested on: M. suipneumoniae JF 435; assay: MIC against mycoplasma in vitro; format: cell-based; settings: Mesomycoplasma hyopneumoniae, JF435, 144 h
[18] = tested on: M. suipneumoniae ATCC 25095; assay: MIC against mycoplasma in vitro; format: cell-based; settings: Mesomycoplasma hyopneumoniae, ATCC25095, 144 h
[19] = tested on: M. hyorhinis ATCC 23234; assay: MIC against mycoplasma in vitro; format: cell-based; settings: Mesomycoplasma hyorhinis, ATCC23234, 144 h; M. hyorhinis ATCC 23234; 6 days, 37° C.; read-out: MIC
[20] = tested on: Corynebacterium pyogenes CY1; assay: MIC against veterinary bacteria in vitro; settings: CY1, 18 h
Description: as §1

[21] = tested on: M. dispar NCTC 10125; assay: MIC against mycoplasma in vitro; format: cell-based; settings: 144 h
[22] = tested on: B. subtilis ATCC 6633; assay: MIC against veterinary bacteria in vitro; settings: Bacillus subtilis, ATCC6633, 18 h
Description: as §1

[23] = tested on: Strep. agalactiae SPA1; assay: MIC against veterinary bacteria in vitro; settings: Streptococcus agalactiae, SPA1, 18 h
Description: as §1

[24] = tested on: M. suipneumoniae Str. 11; assay: MIC against mycoplasma in vitro; format: cell-based; settings: Mesomycoplasma hyopneumoniae, STR.11, 144 h
[25] = tested on: M. suipneumoniae NCTC 10110; assay: MIC against mycoplasma in vitro; format: cell-based; settings: Mesomycoplasma hyopneumoniae, NCTC10110, 144 h; M. suipneumoniae NCTC 10110; 6 days, 37° C.; read-out: MIC
[26] = tested on: Past. multocida PA1; assay: MIC against veterinary bacteria in vitro; settings: Pasteurella multocida, PA1, 18 h
Description: as §1

[27] = tested on: S. dublin S7; assay: MIC against veterinary bacteria in vitro; settings: Salmonella enterica, S7, 18 h
Description: as §1

[28] = tested on: M. suipneumoniae J2206/183^b; assay: MIC against mycoplasma in vitro; format: cell-based; settings: Mesomycoplasma hyopneumoniae, 144 h; M. suipneumoniae J2206/183^b; 6 days, 37° C.; read-out: MIC
[29] = tested on: Staph. aureus 152 (pen. sens); assay: MIC against veterinary bacteria in vitro; settings: Staphylococcus aureus, 18 h
Description: as §1

[30] = tested on: M. suipneumoniae MS 16; assay: MIC against mycoplasma in vitro; format: cell-based; settings: Mesomycoplasma hyopneumoniae, MS16, 144 h
[31] = tested on: Strep. uberis SPU1; assay: MIC against veterinary bacteria in vitro; settings: Streptococcus uberis, SPU1, 18 h
Description: as §1

[32] = tested on: M. bovis NCTC 10131; assay: microbe, parasite or virus in culture; format: cell-based; settings: NCTC10131, 144 h
[33] = tested on: Past. haemolytica PA5; assay: MIC against veterinary bacteria in vitro; settings: Mannheimia haemolytica, PA5, 18 h
Description: as §1

[34] = tested on: Erysipelothrix rhusiopathiae NCTC 8163; assay: MIC against veterinary bacteria in vitro; settings: Erysipelothrix rhusiopathiae, NCTC8163, 18 h
Description: as §1

[35] = tested on: Bord. bronchiseptica B09; assay: MIC against veterinary bacteria in vitro; settings: Bordetella bronchiseptica, B09, 18 h
Description: as §1

[36] = tested on: M. gallisepticum S6; assay: MIC against mycoplasma in vitro; format: cell-based; settings: Mycoplasmoides gallisepticum, S6, 144 h
[37] = tested on: M. bovigenitalium ATCC 14173; assay: MIC against mycoplasma in vitro; format: cell-based; settings: 144 h

Question: How did the MIC [1] turn out when `C/C(=C\c1ncc(-c2ccc(Br)s2)o1)C[C@@H]1OC[C@H](C[C@@H]2O[C@H]2[C@@H](C)[C@H](C)O)[C@@H](O)[C@H]1O` [Example 28, 5-[2-(5-Bromo)-thienyl]-2-(1-normon-2-yl)oxazole A] was run?
Answer: 0.5 µg/mL (≈ 0.946 µM)

Question: What about the MIC [2] of the same compound?
Answer: > 80 µg/mL

Question: And the MIC [3]?
Answer: 10 µg/mL (≈ 18.9 µM)

Question: And the MIC [4]?
Answer: 1 µg/mL (≈ 1.89 µM)

Question: And the MIC [5]?
Answer: 0.5 µg/mL (≈ 0.946 µM)

Question: And the MIC [6]?
Answer: > 80 µg/mL

Question: And the MIC [7]?
Answer: 80 µg/mL (≈ 151 µM)

Question: What about the MIC [8] of the same compound?
Answer: 0.25 µg/mL (≈ 0.473 µM)

Question: And the MIC [9]?
Answer: > 80 µg/mL

Question: What about the MIC [10] of the same compound?
Answer: 0.156 µg/mL (≈ 0.295 µM)

Question: What about the MIC [11] of the same compound?
Answer: 0.312 µg/mL (≈ 0.59 µM)

Question: What about the MIC [12] of the same compound?
Answer: 0.25 µg/mL (≈ 0.473 µM)

Question: What about the MIC [13] of the same compound?
Answer: 0.625 µg/mL (≈ 1.18 µM)

Question: And the MIC [14]?
Answer: 5 µg/mL (≈ 9.46 µM)

Question: What about the MIC [15] of the same compound?
Answer: 2.5 µg/mL (≈ 4.73 µM)

Question: And the MIC [16]?
Answer: 0.5 µg/mL (≈ 0.946 µM)

Question: And the MIC [17]?
Answer: 1 µg/mL (≈ 1.89 µM)

Question: And the MIC [18]?
Answer: 0.25 µg/mL (≈ 0.473 µM)

Question: What about the MIC [19] of the same compound?
Answer: 0.5 µg/mL (≈ 0.946 µM)

Question: What about the MIC [20] of the same compound?
Answer: > 80 µg/mL

Question: What about the MIC [21] of the same compound?
Answer: 0.1 µg/mL (≈ 0.189 µM)

Question: What about the MIC [22] of the same compound?
Answer: 0.07 µg/mL (≈ 0.132 µM)

Question: And the MIC [23]?
Answer: 1.25 µg/mL (≈ 2.37 µM)

Question: What about the MIC [24] of the same compound?
Answer: 0.25 µg/mL (≈ 0.473 µM)

Question: What about the MIC [25] of the same compound?
Answer: 0.5 µg/mL (≈ 0.946 µM)

Question: What about the MIC [26] of the same compound?
Answer: 20 µg/mL (≈ 37.8 µM)

Question: And the MIC [27]?
Answer: > 80 µg/mL

Question: What about the MIC [28] of the same compound?
Answer: 0.5 µg/mL (≈ 0.946 µM)

Question: What about the MIC [29] of the same compound?
Answer: 0.312 µg/mL (≈ 0.59 µM)

Question: And the MIC [30]?
Answer: 0.25 µg/mL (≈ 0.473 µM)

Question: And the MIC [31]?
Answer: < 0.039 µg/mL

Question: And the MIC [32]?
Answer: 0.05 µg/mL (≈ 0.0946 µM)

Question: And the MIC [33]?
Answer: 80 µg/mL (≈ 151 µM)

Question: What about the MIC [34] of the same compound?
Answer: 40 µg/mL (≈ 75.7 µM)

Question: And the MIC [35]?
Answer: 20 µg/mL (≈ 37.8 µM)

Question: What about the MIC [36] of the same compound?
Answer: 2.5 µg/mL (≈ 4.73 µM)

Question: What about the MIC [37] of the same compound?
Answer: 0.1 µg/mL (≈ 0.189 µM)

— patent publication US5041567A, “Antibacterial monic acid derivatives” (Beecham Group plc, priority 1982, dated 1991)
